How the values were obtained:
Assay in all cases: Cell proliferation panel (CellTiter-Glo 2.0, 5 days)
Assay type in all cases: cell-based
[1] = tested on: CT26; details: Murine colon carcinoma fibroblasts
Protocol: (§1) Cell proliferation assay was carried out in a panel of 108 cell lines. 1000 (attached cells) or 3000 (suspension cells) cells/100 μl per well were seeded in 96 well black plate with a clear bottom (Corning #3904). Compounds were added using Tecan D300e Digital Dispenser in 1:3 titration for 9 doses. Plates were incubated for 5 days at 37° C. and 5% CO2. Cell proliferation was measured using CellTiter-Glo 2.0 luciferase-based ATP detection assay (Promega, Madison, WI) at 50 μl per well following the manufacturer's protocol. Plates were then read on a TECAN Sparks multimode microplate reader. Data was analyzed using GraphPad Prism 9 (GraphPad Software, San Diego, CA) to obtain IC50 values. IC50 values were determined using Prism software (GraphPad Software, San Diego, CA).

[2] = tested on: H1930; details: Lung carcinoma small cell lung cancer
Protocol: as §1

[3] = tested on: LNCaP; details: Prostate carcinoma
Protocol: as §1

[4] = tested on: ZR-75-1; details: Mammary gland ductal carcinoma
Protocol: as §1

[5] = tested on: H1792; details: Lung adenocarcinoma NSCLC
Protocol: as §1

[6] = tested on: HCC1419
Protocol: as §1

[7] = tested on: PANC0203; details: Pancreatic adenocarcinoma
Protocol: as §1

[8] = tested on: SK-N-SH; details: Neuroblastoma
Protocol: as §1

[9] = tested on: U118-MG; details: Brain glioblastoma
Protocol: as §1

[10] = tested on: MOLM13; details: Acute myeloid leukemia
Protocol: as §1

[11] = tested on: H2228; details: Lung adenocarcinoma, NSCLC
Protocol: as §1

[12] = tested on: NB-1; details: Neuroblastoma
Protocol: as §1

[13] = tested on: HCT116; details: Colorectal adenocarcinoma
Protocol: as §1

[14] = tested on: MC38; details: Murine colon adenocarcinoma
Protocol: as §1

[15] = tested on: JeKo-1; details: Mantle cell lymphoma
Protocol: as §1

[16] = tested on: A-498; details: Kidney carcinoma
Protocol: as §1

[17] = tested on: MV-4-11; details: Biphenotypic B-Myelomonocytic Leukemia
Protocol: as §1

[18] = tested on: TOV-112D; details: Endometrioid ovarian cancer
Protocol: as §1

[19] = tested on: HNT-34; details: Acute myeloid leukemia
Protocol: as §1

[20] = tested on: H1975; details: Lung adenocarcinoma NSCLC
Protocol: as §1

[21] = tested on: SK-LU-1; details: Lung adenocarcinoma NSCLC
Protocol: as §1

[22] = tested on: H1573; details: Lung adenocarcinoma NSCLC
Protocol: as §1

[23] = tested on: SU-DHL-6; details: Diffuse Large B Cell Lymphoma
Protocol: as §1

[24] = tested on: U87 MG; details: Glioblastoma
Protocol: as §1

[25] = tested on: KATOIII; details: Gastric carcinoma
Protocol: as §1

[26] = tested on: COR-L23; details: Large cell lung carcinoma
Protocol: as §1

[27] = tested on: H526; details: Small cell lung cancer
Protocol: as §1

[28] = tested on: AU565; details: Breast adenocarcinoma
Protocol: as §1

[29] = tested on: HCC1806; details: Breast carcinoma, TNBC
Protocol: as §1

[30] = tested on: HCC1569; details: Mammary gland metaplastic carcinoma
Protocol: as §1

[31] = tested on: SK-N-AS; details: Neuroblastoma
Protocol: as §1

[32] = tested on: CAPAN2; details: Pancreatic adenocarcinoma
Protocol: as §1

[33] = tested on: H2087; details: Lung adenocarcinoma NSCLC
Protocol: as §1

[34] = tested on: PANC0504; details: Pancreatic carcinoma
Protocol: as §1

[35] = tested on: A549; details: Lung carcinoma, NSCLC
Protocol: as §1

[36] = tested on: PANC0403; details: Pancreatic adenocarcinoma
Protocol: as §1

[37] = tested on: MFM-223; details: Breast carcinoma
Protocol: as §1

[38] = tested on: SW1990; details: Pancreatic adenocarcinoma
Protocol: as §1

[39] = tested on: AGS; details: Gastric adenocarcinoma
Protocol: as §1

[40] = tested on: 22RV1; details: Prostate carcinoma
Protocol: as §1

[41] = tested on: SW403; details: Colorectal adenocarcinoma
Protocol: as §1

[42] = tested on: LS513; details: Colorectal carcinoma
Protocol: as §1

[43] = tested on: KASUMI-4; details: Chronic Myeloblastic Leukemia
Protocol: as §1

[44] = tested on: T47D; details: Mammary gland ductal carcinoma
Protocol: as §1

[45] = tested on: IMR-32; details: Neuroblastoma
Protocol: as §1

[46] = tested on: EOL-1; details: Chronic eosinophilic leukemia
Protocol: as §1

For `CCc1nn(C)c2c1/C=C/c1n[nH]c3ccc(cc13)-c1cnn(C)c1OCCN(C)C2=O` [Ex. 6, (17E)-16-ethyl-8,12,14-trimethyl-2,11,12,14-tetrahydro-8H-3,5-ethenotripyrazolo[3,4-f:3′,4′-j:4″,3″-n][1,4]oxazacyclopentadecin-13(10H)-one], the IC50 [1] was 215 nM, the IC50 [2] was 181 nM and the IC50 [3] was 136 nM. It also gave an IC50 [4] of 144 nM, an IC50 [5] of 121 nM and an IC50 [6] of 83.8 nM. It also gave an IC50 [7] of 126 nM, an IC50 [8] of 21.7 nM and an IC50 [9] of 310 nM. It also gave an IC50 [10] of 2.39 nM, an IC50 [11] of 118 nM and an IC50 [12] of 45 nM. For the same compound, the IC50 [13] was 60.2 nM, the IC50 [14] was 217 nM and the IC50 [15] was 20.6 nM. The IC50 [16] was 169 nM, the IC50 [17] was 0.68 nM and the IC50 [18] was 62.5 nM. It also gave an IC50 [19] of 22.3 nM, an IC50 [20] of 87.2 nM and an IC50 [21] of 166 nM. For the same compound, the IC50 [22] was 80.6 nM, the IC50 [23] was 28.4 nM and the IC50 [24] was 89.2 nM. For the same compound, the IC50 [25] was 158 nM, the IC50 [26] was 98.4 nM and the IC50 [27] was 75.5 nM. The IC50 [28] was 25.5 nM, the IC50 [29] was 85.9 nM and the IC50 [30] was 151 nM. It also gave an IC50 [31] of 77.2 nM, an IC50 [32] of 365 nM and an IC50 [33] of 141 nM. The IC50 [34] was 82.2 nM, the IC50 [35] was 67.7 nM and the IC50 [36] was 220 nM. It also gave an IC50 [37] of 36.8 nM, an IC50 [38] of 104 nM and an IC50 [39] of 87.9 nM. For the same compound, the IC50 [40] was 73.2 nM, the IC50 [41] was 18 nM and the IC50 [42] was 30.1 nM. It also gave an IC50 [43] of 11.2 nM, an IC50 [44] of 114 nM and an IC50 [45] of 11.2 nM. The IC50 [46] was 18.9 nM.

Reference: patent US20260070924A1, “INDAZOLE MACROCYCLES AND THEIR USE” (BLOSSOMHILL THERAPEUTICS, INC., priority 2022, published 2026)
